Paper doi:10.1101/760033v2 (biorxiv, 2019)

Experiments:
Assay in all cases: HTRF cAMP assay in HEK293T
Format in all cases: cell-based
[1] = target: T1, Olfr739 (Mus musculus, UniProt E9Q1P0); conditions: partial agonist; range printed for four receptors together
T1 sequence (E9Q1P0 1-309): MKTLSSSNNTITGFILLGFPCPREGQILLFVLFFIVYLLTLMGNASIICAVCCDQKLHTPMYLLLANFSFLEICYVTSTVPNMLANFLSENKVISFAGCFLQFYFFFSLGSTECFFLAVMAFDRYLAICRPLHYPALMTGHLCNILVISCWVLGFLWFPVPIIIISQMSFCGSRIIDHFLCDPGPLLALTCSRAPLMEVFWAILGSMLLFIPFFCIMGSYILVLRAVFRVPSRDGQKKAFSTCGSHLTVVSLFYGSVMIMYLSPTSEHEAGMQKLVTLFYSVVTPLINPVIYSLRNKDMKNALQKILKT

[2] = target: T1, Olfr739
[3] = target: T2, Olfr743 (Mus musculus, UniProt L7N1Y2)
T2 sequence (L7N1Y2 1-311): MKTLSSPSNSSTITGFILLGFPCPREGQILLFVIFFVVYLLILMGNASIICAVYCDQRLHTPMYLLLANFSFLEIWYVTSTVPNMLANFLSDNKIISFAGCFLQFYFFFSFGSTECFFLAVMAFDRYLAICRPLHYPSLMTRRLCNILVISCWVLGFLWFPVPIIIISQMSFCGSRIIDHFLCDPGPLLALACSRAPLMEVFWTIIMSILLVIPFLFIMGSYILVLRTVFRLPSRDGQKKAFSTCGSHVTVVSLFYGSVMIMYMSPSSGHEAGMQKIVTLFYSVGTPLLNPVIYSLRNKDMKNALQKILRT

[4] = target: T3, Olfr748 (Mus musculus, UniProt E9Q9Z0)
T3 sequence (E9Q9Z0 1-307): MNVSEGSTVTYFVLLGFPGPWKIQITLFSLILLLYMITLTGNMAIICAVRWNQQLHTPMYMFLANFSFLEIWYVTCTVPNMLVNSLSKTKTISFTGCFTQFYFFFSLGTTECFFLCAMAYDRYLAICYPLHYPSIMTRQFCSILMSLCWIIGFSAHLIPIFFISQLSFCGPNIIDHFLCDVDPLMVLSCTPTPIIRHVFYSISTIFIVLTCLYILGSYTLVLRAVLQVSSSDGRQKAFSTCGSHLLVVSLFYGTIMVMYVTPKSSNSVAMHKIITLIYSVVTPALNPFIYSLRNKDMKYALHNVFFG

| SMILES | % of the maximum indole response [1] | EC50 [2] [µM] | EC50 [3] [µM] | EC50 [4] [µM] |
| --- | --- | --- | --- | --- |
| COc1ccc2ccccc2c1 [compound 35, 2-methoxynaphthalene] | 71-75% | – | – | – |
| c1ccc2[nH]ccc2c1 [compound 37, indole] | – | 32 | 0.08 | 81 |
